Type in all cases: biochemical
One test addresses SIK1 (Homo sapiens, UniProt P57059). The test can be described thus: Enzymatic activity assay SIK1, RapidFire mass spectrometry (phosphorylation of CHK-peptide). To be noted: RapidFire MS, inhibition of SIK1; read-out: SIK1 RF IC50. The essentials: (§1)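 Compounds (12-point, 3-fold, generally 30 μM to 170 pM) were pre-incubated 30 min at ambient temperature with SIK1 (5 nM), SIK2 (0.5 nM) or SIK3 (1.5 nM) in HEPES pH 7.0/magnesium acetate buffer. CHK-peptide (10 μM solution) and ATP (100 μM solution) were then added for 45 min before formic acid quench.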

Another test concerns the target SIK3 (Homo sapiens, UniProt Q9Y2K2). As to the kind of experiment: Enzymatic activity assay SIK3, RapidFire mass spectrometry (phosphorylation of CHK-peptide). Conditions: RapidFire MS, inhibition of SIK3; read-out: SIK3 RF IC50. Put shortly:
as §1

The target of the next test is SIK2 (Homo sapiens, UniProt Q9H0K1). The test can be described thus: Enzymatic activity assay SIK2, RapidFire mass spectrometry (phosphorylation of CHK-peptide). Conditions: RapidFire MS, inhibition of SIK2; read-out: SIK2 RF IC50. Put shortly: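 SIK2 (0.5 nM) in pH 7.0 HEPES buffer with 10 mM Mg acetate phosphorylates CHK-peptide (10 μM solution) with 100 μM ATP solution, 45 min ambient, then formic acid quench.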

pIC50: −log10 of the molar value.

By pIC50 is commonly meant −log10 of the IC50, conventionally taken in molar units.

Chain of SIK2 (Q9H0K1 whole entry): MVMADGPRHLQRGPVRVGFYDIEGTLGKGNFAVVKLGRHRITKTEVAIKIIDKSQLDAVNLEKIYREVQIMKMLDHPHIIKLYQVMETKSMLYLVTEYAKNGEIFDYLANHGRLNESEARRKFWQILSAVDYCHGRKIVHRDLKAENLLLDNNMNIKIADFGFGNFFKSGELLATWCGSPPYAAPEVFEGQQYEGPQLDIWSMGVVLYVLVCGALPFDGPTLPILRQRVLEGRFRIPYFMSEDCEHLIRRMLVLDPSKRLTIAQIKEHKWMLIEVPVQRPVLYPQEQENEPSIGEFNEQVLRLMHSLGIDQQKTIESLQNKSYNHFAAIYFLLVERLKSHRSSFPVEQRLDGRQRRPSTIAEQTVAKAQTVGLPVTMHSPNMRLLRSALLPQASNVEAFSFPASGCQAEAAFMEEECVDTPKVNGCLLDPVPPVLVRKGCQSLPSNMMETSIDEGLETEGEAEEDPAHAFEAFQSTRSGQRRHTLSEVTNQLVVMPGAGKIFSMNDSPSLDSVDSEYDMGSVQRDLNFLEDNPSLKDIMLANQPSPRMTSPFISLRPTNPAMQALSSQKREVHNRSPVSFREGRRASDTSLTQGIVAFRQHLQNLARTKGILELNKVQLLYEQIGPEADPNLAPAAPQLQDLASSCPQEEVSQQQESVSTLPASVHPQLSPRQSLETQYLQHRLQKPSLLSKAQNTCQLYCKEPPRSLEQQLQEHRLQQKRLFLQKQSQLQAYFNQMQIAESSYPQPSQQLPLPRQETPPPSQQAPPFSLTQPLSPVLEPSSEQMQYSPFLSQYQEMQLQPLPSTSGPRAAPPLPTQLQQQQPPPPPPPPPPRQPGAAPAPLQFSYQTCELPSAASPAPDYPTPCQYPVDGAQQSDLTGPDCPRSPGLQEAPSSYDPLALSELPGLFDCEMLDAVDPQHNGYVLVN
Chain of SIK3 (Q9Y2K2 whole entry): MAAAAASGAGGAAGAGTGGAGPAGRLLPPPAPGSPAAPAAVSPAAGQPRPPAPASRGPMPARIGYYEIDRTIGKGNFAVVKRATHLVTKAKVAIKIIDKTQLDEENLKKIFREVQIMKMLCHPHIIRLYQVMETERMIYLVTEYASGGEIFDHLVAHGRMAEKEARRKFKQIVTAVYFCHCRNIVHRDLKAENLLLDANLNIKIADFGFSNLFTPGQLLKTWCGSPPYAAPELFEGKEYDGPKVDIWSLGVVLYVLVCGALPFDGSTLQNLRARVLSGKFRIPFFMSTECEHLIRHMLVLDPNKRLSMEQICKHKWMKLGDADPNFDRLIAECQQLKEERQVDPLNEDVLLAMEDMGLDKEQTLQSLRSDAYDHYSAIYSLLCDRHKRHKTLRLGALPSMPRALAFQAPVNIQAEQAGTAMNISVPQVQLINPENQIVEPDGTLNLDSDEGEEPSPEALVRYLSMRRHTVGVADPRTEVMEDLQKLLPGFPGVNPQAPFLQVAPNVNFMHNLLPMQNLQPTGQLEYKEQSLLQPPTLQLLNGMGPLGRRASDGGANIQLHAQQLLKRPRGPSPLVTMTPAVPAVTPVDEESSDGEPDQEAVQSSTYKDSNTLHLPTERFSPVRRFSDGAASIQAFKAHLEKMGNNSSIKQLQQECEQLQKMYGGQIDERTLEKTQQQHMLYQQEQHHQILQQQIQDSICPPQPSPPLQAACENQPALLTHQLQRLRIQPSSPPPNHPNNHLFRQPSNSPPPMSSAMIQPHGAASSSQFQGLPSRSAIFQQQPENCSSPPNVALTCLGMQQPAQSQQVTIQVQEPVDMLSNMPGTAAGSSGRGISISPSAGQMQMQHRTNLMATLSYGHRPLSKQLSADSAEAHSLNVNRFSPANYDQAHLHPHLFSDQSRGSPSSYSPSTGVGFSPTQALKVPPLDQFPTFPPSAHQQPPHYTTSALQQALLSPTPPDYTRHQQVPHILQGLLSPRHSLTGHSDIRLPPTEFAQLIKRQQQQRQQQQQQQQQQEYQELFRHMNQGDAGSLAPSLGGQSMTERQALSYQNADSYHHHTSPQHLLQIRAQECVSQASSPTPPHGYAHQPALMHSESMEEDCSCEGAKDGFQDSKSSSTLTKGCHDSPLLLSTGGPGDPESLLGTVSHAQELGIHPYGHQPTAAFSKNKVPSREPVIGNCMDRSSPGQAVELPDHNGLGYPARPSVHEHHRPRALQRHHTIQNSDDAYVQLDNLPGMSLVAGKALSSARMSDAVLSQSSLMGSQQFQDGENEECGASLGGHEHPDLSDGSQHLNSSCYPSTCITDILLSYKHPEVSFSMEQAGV
Chain of SIK1 (P57059 whole entry): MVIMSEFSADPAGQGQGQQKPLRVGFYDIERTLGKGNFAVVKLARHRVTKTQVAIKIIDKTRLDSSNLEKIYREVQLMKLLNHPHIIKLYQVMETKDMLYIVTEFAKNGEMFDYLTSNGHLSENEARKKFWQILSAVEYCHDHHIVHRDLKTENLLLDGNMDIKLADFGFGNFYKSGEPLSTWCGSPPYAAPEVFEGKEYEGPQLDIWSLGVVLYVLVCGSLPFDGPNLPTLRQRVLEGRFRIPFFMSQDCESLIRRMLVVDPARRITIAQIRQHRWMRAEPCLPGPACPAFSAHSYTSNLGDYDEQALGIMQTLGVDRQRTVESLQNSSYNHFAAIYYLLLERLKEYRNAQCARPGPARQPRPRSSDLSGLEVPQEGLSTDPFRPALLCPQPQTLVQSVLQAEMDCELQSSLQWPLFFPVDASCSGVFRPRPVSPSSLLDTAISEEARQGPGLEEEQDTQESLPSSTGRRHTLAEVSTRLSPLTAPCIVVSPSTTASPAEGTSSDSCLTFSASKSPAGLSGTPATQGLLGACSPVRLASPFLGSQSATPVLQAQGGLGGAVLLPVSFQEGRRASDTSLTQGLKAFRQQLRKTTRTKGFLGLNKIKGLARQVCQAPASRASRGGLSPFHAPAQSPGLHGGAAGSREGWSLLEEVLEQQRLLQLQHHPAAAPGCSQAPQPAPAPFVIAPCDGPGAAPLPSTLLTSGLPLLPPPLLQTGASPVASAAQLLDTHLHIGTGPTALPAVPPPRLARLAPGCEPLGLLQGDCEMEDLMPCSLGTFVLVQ

For the compound `Cc1ccc(Nc2ccc3c(c2)ncn3-c2ccc(C(C)O)c(C(=O)NCC(F)(F)F)n2)nn1` (stereo not drawn) [Example 124, 3-(1-Hydroxyethyl)-6-[5-[(6-methylpyridazin-3-yl)amino]benzimidazol-1-yl]-N-(2,2,2-trifluoroethyl)pyridine-2-carboxamide; formic acid], the pIC50 at SIK1 was 5.82; on SIK3, 8.00; at SIK2 it was 7.44.

Take `Cc1ccc(Nc2ccc3ncn(-c4ccc(C(C)O)c(N5CC[C@@H]6NCC[C@H]65)n4)c3c2)nn1` (stereo partly drawn) [Example 125, 1-[6-[6-[(6-Methylpyridazin-3-yl)amino]benzimidazol-1-yl]-2-[(3aR,6aS)-2,3,3a,5,6,6a-hexahydro-1H-pyrrolo[3,2-b]pyrrol-4-yl]-3-pyridyl]ethanol; formic acid]: the pIC50 at SIK1 is 6.01; at SIK3, 6.05; at SIK2, 6.06.

`Cc1ccc(Nc2ccc3ncn(-c4ccc(C(C)O)c(N5CC[C@H]6NCC[C@@H]65)n4)c3c2)nn1` (stereo partly drawn) [Example 126, 1-[6-[6-[(6-Methylpyridazin-3-yl)amino]benzimidazol-1-yl]-2-[(3aS,6aR)-2,3,3a,5,6,6a-hexahydro-1H-pyrrolo[3,2-b]pyrrol-4-yl]-3-pyridyl]ethanol; formic acid]: the results for the pIC50 on SIK1, at SIK3 and on SIK2 were 7.19, 6.64 and 7.13, respectively.

On to `Cc1ccc(Nc2ccc3ncn(-c4ccc(C(C)O)c(-n5nc(C(F)F)cc5C)n4)c3c2)nn1` (stereo not drawn) [Example 128, 1-[2-[3-(Difluoromethyl)-5-methyl-pyrazol-1-yl]-6-[6-[(6-methylpyridazin-3-yl)amino]benzimidazol-1-yl]-3-pyridyl]ethanol], for which the results for the negative logarithm of the IC50 (pIC50) at SIK1, on SIK3 and at SIK2 were 6.71, 6.81 and 7.05, respectively.

`Cc1ccc(Nc2ccc3c(c2)ncn3-c2ccc(C(C)O)c(-n3nc(C(F)F)cc3C)n2)nn1` (stereo not drawn) [Example 129, 1-[2-[3-(Difluoromethyl)-5-methyl-pyrazol-1-yl]-6-[5-[(6-methylpyridazin-3-yl)amino]benzimidazol-1-yl]-3-pyridyl]ethanol; formic acid]: the figures for the negative logarithm of the IC50 (pIC50) at SIK1, at SIK3 and on SIK2 were 6.33, 8.92 and 8.41, respectively.

Turning to `Cc1cc(C#N)nn1-c1nc(-n2cnc3cc(N4CCN(C5COC5)CC4)c(Br)cc32)ccc1C(C)O` (stereo not drawn) [Example 130, 1-[6-[6-Bromo-5-[4-(oxetan-3-yl)piperazin-1-yl]benzimidazol-1-yl]-3-(1-hydroxyethyl)-2-pyridyl]-5-methyl-pyrazole-3-carbonitrile], the values for the pIC50 at SIK1, at SIK3 and at SIK2 were 6.23, 6.47 and 6.67, respectively.

For the compound `CCOc1cc(C)n(-c2nc(-n3cnc4cc(Nc5ccc(C)nn5)ccc43)ccc2C(C)O)n1` (stereo not drawn) [Example 133, 1-[2-(3-Ethoxy-5-methyl-pyrazol-1-yl)-6-[5-[(6-methylpyridazin-3-yl)amino]benzimidazol-1-yl]-3-pyridyl]ethanol; formic acid], the results for the pIC50 on SIK1, at SIK3 and at SIK2 were 6.35, 8.66 and 8.11, respectively.

Regarding `CCOc1cc(C)n(-c2nc(-n3cnc4ccc(Nc5ccc(C)nn5)cc43)ccc2C(C)O)n1` (stereo not drawn) [Example 134, 1-[2-(3-Ethoxy-5-methyl-pyrazol-1-yl)-6-[6-[(6-methylpyridazin-3-yl)amino]benzimidazol-1-yl]-3-pyridyl]ethanol], the pIC50 was 6.37 at SIK1, 5.89 on SIK3 and 6.46 on SIK2.

Turning to `Cc1cc(-c2nc(-n3cnc4cc(Nc5ccc(C)nn5)ccc43)ccc2C(C)O)cnn1` (stereo not drawn) [Example 135, 1-[2-(6-Methylpyridazin-4-yl)-6-[5-[(6-methylpyridazin-3-yl)amino]benzimidazol-1-yl]-3-pyridyl]ethanol], the pIC50 was 4.56 at SIK1, 6.78 at SIK3 and 6.23 at SIK2.

Consider `Cc1ccc(Nc2ccc3c(c2)ncn3-c2ccc(C(C)O)c(N3CCN(CC(F)(F)F)C(=O)C3)n2)nn1` (stereo not drawn) [Example 136, 4-[3-(1-Hydroxyethyl)-6-[5-[(6-methylpyridazin-3-yl)amino]benzimidazol-1-yl]-2-pyridyl]-1-(2,2,2-trifluoroethyl)piperazin-2-one], for which the values for the pIC50 at SIK1, on SIK3 and on SIK2 were 6.46, 8.41 and 7.89, respectively.

In the case of `Cc1ccc(Nc2ccc3ncn(-c4ccc(C(C)O)c(N5CCN(CC(F)(F)F)C(=O)C5)n4)c3c2)nn1` (stereo not drawn) [Example 137, 4-[3-(1-Hydroxyethyl)-6-[6-[(6-methylpyridazin-3-yl)amino]benzimidazol-1-yl]-2-pyridyl]-1-(2,2,2-trifluoroethyl)piperazin-2-one], the pIC50 is 5.27 on SIK1, 6.13 at SIK3 and 5.79 at SIK2.

As to `COc1cc2ncn(-c3ccc(C(C)O)c(-n4nc(C#N)cc4C)n3)c2cc1Nc1ccc(C)nn1` (stereo not drawn) [Example 140, 1-[3-(1-Hydroxyethyl)-6-[5-methoxy-6-[(6-methylpyridazin-3-yl)amino]benzimidazol-1-yl]-2-pyridyl]-5-methyl-pyrazole-3-carbonitrile], the pIC50 on SIK1 is 7.29; at SIK3, 6.76; at SIK2, 7.41.

As to `Cc1ccc(Nc2ccc3c(c2)ncn3-c2ccc(C(C)O)c(-c3cn(CC(F)(F)F)nc3C)n2)nn1` (stereo not drawn) [Example 143, 1-[6-[5-[(6-Methylpyridazin-3-yl)amino]benzimidazol-1-yl]-2-[3-methyl-1-(2,2,2-trifluoroethyl)pyrazol-4-yl]-3-pyridyl]ethanol], the results for the pIC50 on SIK1, at SIK3 and at SIK2 were 6.99, 8.89 and 9.15, respectively.

Take `CNC(=O)c1cc(C)n(-c2nc(-n3cnc4ccc(Nc5ccc(C)nn5)cc43)ccc2C(C)O)n1` (stereo not drawn) [Example 144, 1-[3-(1-Hydroxyethyl)-6-[6-[(6-methylpyridazin-3-yl)amino]benzimidazol-1-yl]-2-pyridyl]-N,5-dimethyl-pyrazole-3-carboxamide]: the pIC50 on SIK1 is 5.08; at SIK3, 5.03; on SIK2, 5.23.

For `Cc1ccc(Nc2ccc3c(c2)ncn3-c2ccc(C(C)O)c(-n3nc(S(C)(=O)=O)cc3C)n2)nn1` (stereo not drawn) [Example 145, 1-[2-(5-Methyl-3-methylsulfonyl-pyrazol-1-yl)-6-[5-[(6-methylpyridazin-3-yl)amino]benzimidazol-1-yl]-3-pyridyl]ethanol], the pIC50 is 6.26 on SIK1, 8.85 on SIK3 and 8.05 at SIK2.

As to `Cc1cc(C#N)nn1-c1nc(-n2cnc3cc(Nc4ccn(C)c(=O)n4)ccc32)ccc1C(C)O` (stereo not drawn) [Example 146, 1-[3-(1-Hydroxyethyl)-6-[5-[(2-keto-1-methyl-pyrimidin-4-yl)amino]benzimidazol-1-yl]-2-pyridyl]-5-methyl-pyrazole-3-carbonitrile], the pIC50 on SIK1 was 6.64; on SIK3, 8.11; on SIK2, 7.46.

In the case of `Cc1ccc(Nc2ccc3c(c2)ncn3-c2ccc(C(O)C(F)(F)F)c(-n3nc(C#N)cc3C)n2)nn1` (stereo not drawn) [Example 148, 5-Methyl-1-[6-[5-[(6-methylpyridazin-3-yl)amino]benzimidazol-1-yl]-3-(2,2,2-trifluoro-1-hydroxy-ethyl)-2-pyridyl]pyrazole-3-carbonitrile], the figures for the pIC50 at SIK1, at SIK3 and at SIK2 were 6.18, 8.92 and 7.99, respectively.

For the compound `Cc1ccc(Nc2ccc3c(c2)ncn3-c2ccc(C(C)O)c(-c3cn(C(F)F)nc3C)n2)nn1` (stereo not drawn) [Example 149, 1-[2-[1-(Difluoromethyl)-3-methyl-pyrazol-4-yl]-6-[5-[(6-methylpyridazin-3-yl)amino]benzimidazol-1-yl]-3-pyridyl]ethanol], the values for the pIC50 on SIK1, on SIK3 and on SIK2 were 5.89, 8.72 and 8.08, respectively.

`Cc1ccc(Nc2ccc3ncn(-c4ccc(C(C)O)c(-n5ncc(C#N)c5C)n4)c3c2)nn1` (stereo not drawn) [Example 150, 1-[3-(1-Hydroxyethyl)-6-[6-[(6-methylpyridazin-3-yl)amino]benzimidazol-1-yl]-2-pyridyl]-5-methyl-pyrazole-4-carbonitrile]: the pIC50 is 4.61 at SIK1, 7.47 at SIK3 and 6.68 on SIK2.

In the case of `Cc1ccc(Nc2ccc3c(c2)ncn3-c2ccc(C(C)O)c(-n3ncc(C#N)c3C)n2)nn1` (stereo not drawn) [Example 151, 1-[3-(1-Hydroxyethyl)-6-[5-[(6-methylpyridazin-3-yl)amino]benzimidazol-1-yl]-2-pyridyl]-5-methyl-pyrazole-4-carbonitrile], the pIC50 at SIK1 is 4.87; on SIK3, 5.72; on SIK2 it was 5.33.

Consider `CNC(=O)c1cc(C)n(-c2nc(-n3cnc4cc(Nc5ccc(C)nn5)ccc43)ccc2C(C)O)n1` (stereo not drawn) [Example 152, 1-[3-(1-Hydroxyethyl)-6-[5-[(6-methylpyridazin-3-yl)amino]benzimidazol-1-yl]-2-pyridyl]-N,5-dimethyl-pyrazole-3-carboxamide], for which the pIC50 at SIK1 was 5.30; on SIK3 it was 7.79; at SIK2, 7.09.

Consider `Cc1cc(C#N)nn1-c1nc(-n2cnc3cc(NC4CCN(C)C(=O)C4)ccc32)ccc1C(C)O` (stereo not drawn) [Example 155, 1-[3-(1-Hydroxyethyl)-6-[5-[(2-keto-1-methyl-4-piperidyl)amino]benzimidazol-1-yl]-2-pyridyl]-5-methyl-pyrazole-3-carbonitrile], for which the pIC50 on SIK1 was 6.44; on SIK3, 7.58; on SIK2 it was 7.04.

The record behind these values is US20240383875A1, “Benzimidazole Pyridine Derivatives” (Hoffmann-La Roche Inc., priority 2022, published 2024).
